In publication PMC8220418, “A fragment-based approach to assess the ligandability of ArgB, ArgC, ArgD and ArgF in the L-arginine biosynthetic pathway of Mycobacterium tuberculosis” (Computational and Structural Biotechnology Journal, 2021):

Tested on: M. tuberculosis ΔargB
Type: cell-based, Mycobacterium tuberculosis

Row | SMILES | Inhibitory activity on growth with arginine present
1 | O=c1cc[nH]c2c(C(F)(F)F)cccc12 [NMR446, 8-(trifluoromethyl)-1H-quinolin-4-one] | no inhibitory activity
2 | O=c1cc(C(F)(F)F)[nH]c2c(C(F)(F)F)cccc12 [NMR711, 2,8-bis(trifluoromethyl)-1H-quinolin-4-one] | inhibitory
3 | NC(N)=NOCC[C@H](N)C(=O)O [L-canavanine, reference compound] | no inhibitory activity
